# pKi: −log10 of the molar value. The source made the active and inactive calls. The calls are words filed in the database; no cut-off is given here.
# Assays:
# [1] = target: T1, Fatty-acid amide hydrolase 1 (Rattus norvegicus) (UniProt P97612); assay: Inhibition of rat histidine tagged FAAH expressed in Escherichia coli at 10 uM by coumarin ester substrate fluorescence assay
# T1 sequence (whole entry): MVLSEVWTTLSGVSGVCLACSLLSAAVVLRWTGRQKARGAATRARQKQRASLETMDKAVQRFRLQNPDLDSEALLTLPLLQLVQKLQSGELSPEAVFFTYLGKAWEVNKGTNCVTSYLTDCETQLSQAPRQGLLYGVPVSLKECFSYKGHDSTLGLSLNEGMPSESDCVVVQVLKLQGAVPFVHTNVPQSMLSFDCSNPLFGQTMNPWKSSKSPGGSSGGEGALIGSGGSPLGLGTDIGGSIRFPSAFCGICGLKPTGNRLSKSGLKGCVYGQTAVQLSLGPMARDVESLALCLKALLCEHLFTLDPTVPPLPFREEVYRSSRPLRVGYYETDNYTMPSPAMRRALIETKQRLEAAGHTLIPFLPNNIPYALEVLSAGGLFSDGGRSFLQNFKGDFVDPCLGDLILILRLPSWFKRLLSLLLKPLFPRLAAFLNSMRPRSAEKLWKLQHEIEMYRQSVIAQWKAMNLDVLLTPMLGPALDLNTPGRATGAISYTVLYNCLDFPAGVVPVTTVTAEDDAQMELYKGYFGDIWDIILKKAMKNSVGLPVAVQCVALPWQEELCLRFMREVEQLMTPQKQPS
# [2] = target: T2, Monoglyceride lipase (Homo sapiens) (UniProt Q99685); assay: Inhibition of human N-terminal histidine tagged full length MAGL expressed in Escherichia coli at 10 uM by coumarin ester substrate fluorescence assay
# T2 sequence (whole entry): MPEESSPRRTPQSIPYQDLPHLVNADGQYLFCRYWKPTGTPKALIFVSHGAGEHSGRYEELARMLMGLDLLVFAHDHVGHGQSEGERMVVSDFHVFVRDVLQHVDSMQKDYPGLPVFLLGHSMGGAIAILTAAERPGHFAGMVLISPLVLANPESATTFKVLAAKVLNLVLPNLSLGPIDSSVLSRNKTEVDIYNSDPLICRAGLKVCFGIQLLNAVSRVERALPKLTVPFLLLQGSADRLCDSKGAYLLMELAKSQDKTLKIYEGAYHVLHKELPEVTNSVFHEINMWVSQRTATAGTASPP
# [3] = target: Cannabinoid receptor 1 (Rattus norvegicus, UniProt P20272); format: cell membranes, Brain
# Chain of Cannabinoid receptor 1 (P20272 whole entry): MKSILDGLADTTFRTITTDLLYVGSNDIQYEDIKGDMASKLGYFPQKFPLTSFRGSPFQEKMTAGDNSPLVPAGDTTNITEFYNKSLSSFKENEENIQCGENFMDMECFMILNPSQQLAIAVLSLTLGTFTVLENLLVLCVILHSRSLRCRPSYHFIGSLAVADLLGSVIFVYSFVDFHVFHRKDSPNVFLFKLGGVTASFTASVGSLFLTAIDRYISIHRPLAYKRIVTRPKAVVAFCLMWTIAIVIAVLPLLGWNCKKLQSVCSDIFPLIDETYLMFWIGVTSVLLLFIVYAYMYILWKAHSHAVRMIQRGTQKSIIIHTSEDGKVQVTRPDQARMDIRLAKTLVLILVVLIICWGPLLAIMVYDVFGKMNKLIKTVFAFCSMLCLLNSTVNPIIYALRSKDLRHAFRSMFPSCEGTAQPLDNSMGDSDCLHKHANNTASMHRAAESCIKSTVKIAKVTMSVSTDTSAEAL
# Description: Displacement of [3H]CP55940 from CB1 receptor in rat brain synaptosome membrane
# [4] = target: Cannabinoid receptor 2 (Homo sapiens, UniProt P34972); assay: Displacement of [3H]CP55940 from human CB2 receptor expressed in HEK293 cells; format: cell-based
# Chain of Cannabinoid receptor 2 (Homo sapiens, UniProt P34972) (P34972 whole entry): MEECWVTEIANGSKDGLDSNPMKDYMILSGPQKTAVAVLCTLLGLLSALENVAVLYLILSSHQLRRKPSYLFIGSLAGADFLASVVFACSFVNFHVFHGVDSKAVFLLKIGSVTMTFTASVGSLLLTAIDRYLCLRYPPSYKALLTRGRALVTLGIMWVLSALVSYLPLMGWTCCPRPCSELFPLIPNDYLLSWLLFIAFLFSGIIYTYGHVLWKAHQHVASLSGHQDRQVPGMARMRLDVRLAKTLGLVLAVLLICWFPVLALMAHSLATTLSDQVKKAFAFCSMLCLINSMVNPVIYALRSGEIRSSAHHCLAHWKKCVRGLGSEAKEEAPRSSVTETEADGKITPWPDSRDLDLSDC
# [5] = target: Cannabinoid receptor 2 (Mus musculus, UniProt P47936); assay: Displacement of [3H]CP55940 from CB2 receptor in mouse spleen membrane; format: cell membranes
# Chain of Cannabinoid receptor 2 (Mus musculus, UniProt P47936) (P47936 whole entry): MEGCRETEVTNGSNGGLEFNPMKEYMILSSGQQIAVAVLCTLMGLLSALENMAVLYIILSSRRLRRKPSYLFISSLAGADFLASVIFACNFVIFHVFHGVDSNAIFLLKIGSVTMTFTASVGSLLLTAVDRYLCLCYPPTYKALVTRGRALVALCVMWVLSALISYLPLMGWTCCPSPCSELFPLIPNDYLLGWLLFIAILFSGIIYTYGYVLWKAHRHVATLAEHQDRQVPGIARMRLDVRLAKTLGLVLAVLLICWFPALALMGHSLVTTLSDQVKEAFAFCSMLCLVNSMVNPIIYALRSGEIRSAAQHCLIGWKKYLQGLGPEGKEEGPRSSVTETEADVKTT
smiles,measurement,setting,value
CCCCCCCCCCCCCCCCS(=O)(=O)F,inhibition,[1],100%
CCCCCCCC/C=C\CCCCCCCC(=O)OC(COC)COC(=O)NCCCCCCCC (racemic),inhibition,[2],inactive
same,pKi,[3],< 6.00
same,inhibition,[1],inactive
same,pKi,[4],< 6.00
same,pKi,[5],< 6.00
CCCCCCCC(=O)OC(CNC(=O)ON=C1CCCCC1)COC (racemic),inhibition,[2],inactive
same,pKi,[3],< 6.00
same,inhibition,[1],inactive
same,pKi,[4],< 6.00
same,pKi,[5],< 6.00
CCCCC/C=C\C/C=C\C/C=C\C/C=C\CCCC(=O)OC(COC)COC(=O)NCCCCCCCC (racemic),inhibition,[2],inactive
same,pKi,[3],< 6.00
same,inhibition,[1],inactive
same,pKi,[4],< 6.00
same,pKi,[5],< 6.00
CCCCCCCC/C=C\CCCCCCCC(=O)OC(CNC(=O)ON=C1CCCCC1)COC (racemic),inhibition,[2],inactive
same,pKi,[3],< 6.00
same,inhibition,[1],inactive
same,pKi,[4],< 6.00
same,pKi,[5],< 6.00
CCCCCCCCNC(=O)OCC(COC)OC(=O)NCCCCCCCC (racemic),inhibition,[2],inactive
same,pKi,[3],< 6.00
same,inhibition,[1],inactive
same,pKi,[4],< 6.00
same,pKi,[5],< 6.00
COCC(CNC(=O)ON=C1CCCCC1)OC(=O)CCCc1ccc(-c2ccccc2)cc1 (racemic),inhibition,[2],inactive
same,pKi,[3],< 6.00
same,inhibition,[1],inactive
same,pKi,[4],< 6.00
same,pKi,[5],< 6.00
CCCCCCCCOC(=O)NCC(COC)OC(=O)CCCCCCC (racemic),inhibition,[2],inactive
same,pKi,[3],< 6.00
same,inhibition,[1],inactive
same,pKi,[4],< 6.00
same,pKi,[5],< 6.00
CCCCCCCC/C=C\CCCCCCCC(=O)OC(CNC(=O)OCCCCCCCC)COC (racemic),inhibition,[2],inactive
same,pKi,[3],< 6.00
same,inhibition,[1],inactive
same,pKi,[4],< 6.00
same,pKi,[5],< 6.00
CCCCCCCC(=O)NCC(COC)OC(=O)CCCCCCC (racemic),inhibition,[2],inactive
same,pKi,[3],< 6.00
same,inhibition,[1],inactive
same,pKi,[4],< 6.00
same,pKi,[5],< 6.00
COCC(COC(=O)CCCc1ccc(-c2ccccc2)cc1)OC(=O)CCCc1ccc(-c2ccccc2)cc1 (racemic),inhibition,[2],inactive
same,pKi,[3],< 6.00
same,inhibition,[1],inactive
same,pKi,[4],< 6.00
same,pKi,[5],< 6.00
CCCCCCCC/C=C\CCCCCCCC(=O)OC(CNC(=O)CCCCCCC)COC (racemic),inhibition,[2],inactive
same,pKi,[3],< 6.00
same,inhibition,[1],inactive
same,pKi,[4],< 6.00
same,pKi,[5],< 6.00
CCCCCCCCNC(=O)OCC(OC)O[Si](c1ccccc1)(c1ccccc1)C(C)(C)C (racemic),inhibition,[2],inactive
same,pKi,[3],< 6.00
same,inhibition,[1],inactive
same,pKi,[4],< 6.00
same,pKi,[5],< 6.00
COCC(CNC(=O)CCCc1ccc(-c2ccccc2)cc1)OC(=O)CCCc1ccc(-c2ccccc2)cc1 (racemic),inhibition,[2],inactive
same,pKi,[3],< 6.00
same,inhibition,[1],inactive
same,pKi,[4],< 6.00
same,pKi,[5],< 6.00
CCCCCCCCNC(=O)OCC(COC)OC(=O)CCCCCCC (racemic),inhibition,[2],inactive
same,pKi,[3],< 6.00
same,inhibition,[1],inactive
same,pKi,[4],< 6.00
same,pKi,[5],< 6.00
COCC(O)CNC(=O)ON=C1CCCCC1 (racemic),inhibition,[2],inactive
same,inhibition,[1],inactive
same,pKi,[4],< 6.00
same,pKi,[5],< 6.00
CCCCCCCC(=O)OCC(COC)OC(=O)CCCCCCC (racemic),inhibition,[2],inactive
same,pKi,[3],< 6.00
same,inhibition,[1],inactive
same,pKi,[4],< 6.00
same,pKi,[5],< 6.00

# Source: ChEMBL document CHEMBL2169869, “Assay and inhibition of diacylglycerol lipase activity” (Bioorg Med Chem Lett, 2012)
